The target of data set [1] is Glutamate receptor ionotropic, AMPA (Rattus norvegicus, UniProt P19490+P19491+P19492+P19493). The data set can be described thus: In vitro binding affinity against Ionotropic glutamate receptor AMPA binding site using [3H]- AMPA as radioligand on rat cortical synaptosomal membranes.
Data set [2] is described as follows: In vitro binding affinity against glycine receptor binding site using [3H]- Glycine as radioligand on rat cortical synaptosomal membranes.
Data set [3] in a line: Solubility was measured in 50 mM phosphate buffer at pH 7.4. The format is physicochemical.
Data set [4] is filed under the species Mus musculus. The data set can be described thus: Anticonvulsant activity in mice was determined from maximal electroshock assay. The format is functional. A general note: Protection in the maximal electroshock model is a classic sign of anticonvulsant action.

≈ marks a conversion by molar mass, not a printed value.

`CCc1ccc2nc(O)c(O)nc2c1CN(C)CC(=O)O`: the IC50 in data set [1] and in data set [2] was > 10000 nM in each case.
As for `CCc1c(Br)cc2nc(O)c(O)nc2c1CN(C)CC(=O)O`, the half-inhibitory concentration (IC50) (commonly the concentration needed to halve the response being measured) in data set [1] is 2320 nM. In addition, the solubility – broadly, the concentration that dissolves in the medium under given conditions – in data set [3] turned out to be 140 µg/mL (≈ 378 µM).
In turn, `C=Cc1c(Br)cc2nc(O)c(O)nc2c1CN(C)CC(=O)O` displayed an IC50 in data set [1] of 1180 nM. This compound gave a solubility in data set [3] of 170 µg/mL (≈ 462 µM).
On to `CCc1c([N+](=O)[O-])cc2nc(O)c(O)nc2c1CN(C)CC(=O)O`, for which the IC50 turned out to be 140 nM in data set [1] and 470 nM in data set [2]. In data set [3], this compound yielded a solubility of 420 µg/mL (≈ 1250 µM).
In turn, `CN1CCc2c([N+](=O)[O-])cc3nc(O)c(O)nc3c2C1` came in with an IC50 in data set [2] of 370 nM. Further, in data set [4], the ED50 (commonly the midpoint of the dose-response relation) was found to be 0.44 mg/kg. Besides, the concentration in solution in data set [3] (solubility) came to 8.6 µg/mL (≈ 31.1 µM).
Take `CCOC(=O)CN(C)Cc1c(CC)c([N+](=O)[O-])cc2nc(O)c(O)nc12`: the IC50 in data set [1] was 1590 nM; in data set [2], > 10000 nM. This compound yielded a solubility in data set [3] of 150 µg/mL (≈ 412 µM).
